In patent publication US4965269A, “Therapeutically active chloro substituted benzimidazoles” (AB Hassle, priority 1989, dated 1990):

Experiment: Chemical stability in aqueous buffer solution
Type: physicochemical
Conditions: pH 2, 37° C., time after which 10% of the original compound has decomposed
Protocol: The chemical stability of the compounds of the invention has been followed kinetically at low concentration at 37° C. in aqueous buffer solution at different pH values. The results in Table 3 show the half life (t 1/2) at pH 7, that is the time period after which half the amount of the original compound remains unchanged, and t10 % at pH 2, that is the time period after which 10% of the original compound has decomposed.

Row | Compound | Chemical Stability at pH 2, t 10% [h]
1 | COc1ccnc(C[S+]([O-])c2nc3cc(Cl)ccc3n2COC(=O)OCc2ccccc2)c1OC (stereo not shown) [Example 1, 5-chloro-2-[[(3,4-dimethoxy-2-pyridinyl)methyl]sulfinyl]-1H-benzimidazole-1-ylmethyl benzyl carbonate] | 14
2 | CCCCOC(=O)OCn1c([S+]([O-])Cc2nccc(OC)c2OC)nc2ccc(Cl)cc21 (stereo not shown) [Example 4, 6-chloro-2[[(3,4-dimethoxy-2pyridinyl)methyl]sulfinyl]-1H-benzimidazole-1-ylmethyl butyl carbonate] | 42
3 | CCCCOC(=O)OCn1c([S+]([O-])Cc2nccc(OC)c2OC)nc2cc(Cl)ccc21 (stereo not shown) [Example 3, 5-chloro-2-[[(3,4-dimethoxy-2-pyridinyl)methyl]sulfinyl]-1H-benzimidazole-1-ylmethyl butyl carbonate] | 21
4 | COc1ccnc(C[S+]([O-])c2nc3ccc(Cl)cc3n2COC(=O)OCc2ccccc2)c1OC (stereo not shown) [Example 2, 6-chloro-2-[[(3,4-dimethoxy-2-pyridinyl)methyl]sulfinyl]-1H-benzimidazole-1-ylmethyl benzyl carbonate] | 27
